Where two headings read alike, the source gives them in different places.
Legend:
[1] = Ocular biodistribution of PS after topical eye drops in New Zealand white rabbits (HPLC); assay type: in vivo, rabbit; conditions: New Zealand white, rabbit, topical, topical
Experimental: Results: The above PS formulation was administered topically as eye drops to the eyes of New Zealand white rabbits. The levels of PS in ocular tissues 1 h and 3 h later were determined by HPLC. The Table below summarizes the findings:
Results: The above PS formulation was administered topically as eye drops to the eyes of New Zealand white rabbits. The levels of PS in ocular tissues at 2 h later were determined by HPLC. The table below summarizes the findings.
Results: PS in this formulation was administered topically to the eyes of New Zealand white rabbits and its biodistribution was determined as above. The Table below summarizes the findings.
Results: PS in this formulation was administered topically as eye drops to the eyes of New Zealand white rabbits. The biodistribution of PS in ocular tissues at 3 h and 6 h was determined by HPLC. The Table below summarizes the findings.
Biodistribution of PS after topical administration: PS formulated in nanoparticles as above was administered topically as eye drops to New Zealand white rabbits. The biodistribution of PS in ocular tissues at the indicated time points post administration was determined by HPLC. The Table below summarizes the findings.
Biodistribution of PS after topical administration: PS in the formulations was administered topically as eye drops to the eyes of New Zealand white rabbits. The levels of PS in ocular tissues at 0.5 h, 1 h and 3 h were determined by HPLC. The Table below summarizes the findings.
To assess the contribution of the foregoing formulations to the PK/biodistribution of PS in the ocular tissues, a solution of PS in pure propylene glycol (PG) was studied. PG is well tolerated by the eye. A 3.5% PS solution (in PG) as eye drops was administered topically to the eyes of New Zealand white rabbits and its 1-hour biodistribution was determined by HPLC. The Table summarizes the findings.

[2] = system: MMP-1; assay: MMP-1 levels in cultured human conjunctival cells (ELISA); assay type: cell-based; conditions: for reduction of MMP-1 secreted into the culture medium: compared to controls; for levels of MMP-1 secreted into the culture medium: mean±SEM
Experimental: In an in vitro assay with purified MMP-1 (collagenase I) as […] it was shown that PS inhibited collagenase activity with an IC50 of <100 nM. In cultured human conjunctiva cells, PS suppressed MMP-1 by 75%-86%. In the lacrimal glands of rabbits with DED treated with PS eye drops, PS suppressed MMP-9 levels by 27% compared to vehicle treated rabbits (2.20±0.24 vs. 1.66±0.20 ng/mg protein; p<0.05; mean±SEM).
The Mechanism of Action of PS in Dry Eye. Tissue culture, animal and human studies have established inflammation as the core mechanism of DED^8. To determine the mechanism of action of PS in DED the response to PS of several factors known to play an important role in the inflammation associated with DED was explored. They include NF-κB; the cytokines TGF-β, IL-1 β, IL-6 and IL-8; the collagenases MMP-1 and MMP-9; and PGE2. In these studies we used human conjunctival epithelial cells, the Wong-Kilbourne derivative of Chang conjunctival cells (clone 1 to 5c-41 American Type Culture Collection (Manassas, Va.) certified cell line, 20.2).

[3] = ciliary body, 5.4 % PS, Poloxamer 407 in-situ gel, 5.4% PS, read-out: PS in Ciliary body
[4] = conjunctiva, 5.4 % PS, Poloxamer 407 in-situ gel, 5.4% PS, read-out: PS in Conjunctiva
[5] = conjunctiva, topical eye drops, mPEG-PLA nanoparticles, read-out: PS in Conjunctiva
[6] = cornea, topical eye drops, mPEG-PLA nanoparticles, read-out: PS in Cornea
[7] = iris, 5.4 % PS, Poloxamer 407 in-situ gel, 5.4% PS, read-out: PS in Iris
[8] = iris, topical eye drops, mPEG-PLA nanoparticles, read-out: PS in Iris
[9] = lacrimal gland, topical eye drops, mPEG-PLA nanoparticles, read-out: PS in Lacrimal gland
[10] = lens, 5.4 % PS, Poloxamer 407 in-situ gel, 5.4% PS, read-out: PS in Lens
[11] = retina, 3 % PS, sodium alginate/Tween 80 in-situ gel, 3% PS, read-out: PS in Retina
[12] = retina, 5.4 % PS, Poloxamer 407 in-situ gel, 5.4% PS, read-out: PS in Retina
[13] = sclera, 5.4 % PS, Poloxamer 407 in-situ gel, 5.4% PS, read-out: PS in Sclera
[14] = sclera, topical eye drops, mPEG-PLA nanoparticles, read-out: PS in Sclera
[15] = vitreous, 5.4 % PS, Poloxamer 407 in-situ gel, 5.4% PS, read-out: PS in Vitreous

Which concentration at 2 h ([1]; choroid, 0.5% gellan gum in-situ gel, 2.4~3% PS, read-out: PS in Choroid) does the source give for `CCOP(=O)(OCC)OCCCCOC(=O)CC1=C(C)/C(=C/c2ccc([S+](C)[O-])cc2)c2ccc(F)cc21` (stereo not shown) [PS, phosphosulindac] here?
Its concentration at 2 h is 0 µM.

What about the concentration at 3 h [1, 3] of the same compound?
The concentration at 3 h was 0 µM.

And the concentration at 6 h [1, 3]?
The concentration at 6 h was 0 µM.

What about the concentration at 2 h ([1]; ciliary body, 0.5% gellan gum in-situ gel, 2.4~3% PS, read-out: PS in Ciliary body) of the same compound?
The concentration at 2 h was 0 µM.

And the concentration at 1 h ([1]; conjunctiva, 3.5 % PS solution (eye drops), topical eye drops, 3.5% PS solution in propylene glycol, read-out: PS in Conjunctiva)?
The concentration at 1 h was 3.3 µM.

What about the concentration at 3 h [1, 4] of the same compound?
Its concentration at 3 h is 5.6 µM.

And the concentration at 6 h [1, 4]?
Its concentration at 6 h is 10.7 µM.

What about the concentration at 0.5 h [1, 5] of the same compound?
Its concentration at 0.5 h is 121 µM.

What about the concentration at 1 h [1, 5] of the same compound?
The concentration at 1 h was 80.4 µM.

What about the concentration at 2 h [1, 5] of the same compound?
The concentration at 2 h was 16.9 µM.

And the concentration at 8 h ([1]; cornea, 3 % PS, sodium alginate/Tween 80 in-situ gel, 3% PS, read-out: PS in Cornea)?
The concentration at 8 h was 0 nM.

And the concentration at 1 h ([1]; cornea, 3.5 % PS solution (eye drops), topical eye drops, 3.5% PS solution in propylene glycol, read-out: PS in Cornea)?
Its concentration at 1 h is 38.8 µM.

And the concentration at 6 h ([1]; cornea, 5.4 % PS, Poloxamer 407 in-situ gel, 5.4% PS, read-out: PS in Cornea)?
The concentration at 6 h was 13.6 µM.

And the concentration at 0.5 h [1, 6]?
The concentration at 0.5 h was 89.8 µM.

What about the concentration at 1 h [1, 6] of the same compound?
The concentration at 1 h was 63.9 µM.

And the concentration at 2 h [1, 6]?
Its concentration at 2 h is 43.5 µM.

What about the concentration at 3 h [1, 7] of the same compound?
Its concentration at 3 h is 0 µM.

And the concentration at 6 h [1, 7]?
The concentration at 6 h was 0 µM.

And the concentration at 0.5 h [1, 8]?
Its concentration at 0.5 h is 2.8 µM.

What about the concentration at 1 h [1, 8] of the same compound?
The concentration at 1 h was 6.4 µM.

And the concentration at 2 h [1, 8]?
The concentration at 2 h was 1.3 µM.

What about the concentration at 2 h ([1]; iris, 0.5% gellan gum in-situ gel, 2.4~3% PS, read-out: PS in Iris) of the same compound?
Its concentration at 2 h is 0 µM.

What about the concentration at 1 h ([1]; lacrimal gland, 3.5 % PS solution (eye drops), topical eye drops, 3.5% PS solution in propylene glycol, read-out: PS in Lacrimal gland) of the same compound?
Its concentration at 1 h is 0.1 µM.

What about the concentration at 0.5 h [1, 9] of the same compound?
Its concentration at 0.5 h is 7.5 µM.

And the concentration at 1 h [1, 9]?
Its concentration at 1 h is 3.5 µM.

And the concentration at 2 h [1, 9]?
Its concentration at 2 h is 0.6 µM.

What about the concentration at 2 h ([1]; lacrimal gland, 0.5% gellan gum in-situ gel, 2.4~3% PS, read-out: PS in Lacrimal Gland) of the same compound?
The concentration at 2 h was 0 µM.

What about the concentration at 3 h [1, 10] of the same compound?
Its concentration at 3 h is 0 µM.

What about the concentration at 6 h [1, 10] of the same compound?
Its concentration at 6 h is 0 µM.

And the concentration at 2 h ([1]; lens, 0.5% gellan gum in-situ gel, 2.4~3% PS, read-out: PS in Lens)?
The concentration at 2 h was 0 µM.

What about the concentration at 1 h [1, 11] of the same compound?
Its concentration at 1 h is 0 µM.

And the concentration at 3 h [1, 11]?
The concentration at 3 h was 0 µM.

What about the concentration at 5 h ([1]; retina, 3 % PS, 5 h, sodium alginate/Tween 80 in-situ gel, 3% PS, read-out: PS in Retina) of the same compound?
The concentration at 5 h was 0 nM.

And the concentration at 8 h [1, 11]?
The concentration at 8 h was 0 nM.

And the concentration at 1 h ([1]; retina, 3.5 % PS solution (eye drops), topical eye drops, 3.5% PS solution in propylene glycol, read-out: PS in Retina)?
The concentration at 1 h was 0 µM.

What about the concentration at 3 h [1, 12] of the same compound?
Its concentration at 3 h is 0 µM.

And the concentration at 6 h [1, 12]?
The concentration at 6 h was 0 µM.

What about the concentration at 2 h ([1]; retina, 0.5% gellan gum in-situ gel, 2.4~3% PS, read-out: PS in Retina) of the same compound?
Its concentration at 2 h is 0 µM.

What about the concentration at 1 h ([1]; sclera, 3.5 % PS solution (eye drops), topical eye drops, 3.5% PS solution in propylene glycol, read-out: PS in Sclera) of the same compound?
Its concentration at 1 h is 0 µM.

What about the concentration at 3 h [1, 13] of the same compound?
Its concentration at 3 h is 0 µM.

And the concentration at 6 h [1, 13]?
The concentration at 6 h was 0 µM.

And the concentration at 0.5 h [1, 14]?
Its concentration at 0.5 h is 32.1 µM.

What about the concentration at 1 h [1, 14] of the same compound?
The concentration at 1 h was 17.1 µM.

What about the concentration at 2 h [1, 14] of the same compound?
Its concentration at 2 h is 4.7 µM.

What about the concentration at 2 h ([1]; sclera, 0.5% gellan gum in-situ gel, 2.4~3% PS, read-out: PS in Sclera) of the same compound?
Its concentration at 2 h is 0 µM.

And the concentration at 1 h ([1]; vitreous body, 3.5 % PS solution (eye drops), topical eye drops, 3.5% PS solution in propylene glycol, read-out: PS in Vitreous body)?
The concentration at 1 h was 0 µM.

And the concentration at 3 h ([1]; vitreous body, 3.5 % PS, topical eye drops, 3.5% PS/16% Vitamin E TPGS/mannitol/boric acid, read-out: PS in Vitreous body)?
Its concentration at 3 h is 0 µM.

What about the concentration at 3 h [1, 15] of the same compound?
The concentration at 3 h was 0 µM.

And the concentration at 6 h [1, 15]?
Its concentration at 6 h is 0 µM.

And the concentration at 2 h ([1]; vitreous, 0.5% gellan gum in-situ gel, 2.4~3% PS, read-out: PS in Vitreous)?
Its concentration at 2 h is 0 µM.

And the “reduction of MMP-1 secreted into the culture medium” value ([2]; PS 1×IC50, 2 h)?
Its value is 48%.

And the “levels of MMP-1 secreted into the culture medium” value ([2]; PS 1×IC50, 2 h)?
The value was 24.9±0.8.

What about the “reduction of MMP-1 secreted into the culture medium” value ([2]; PS 1.5×IC50, 2 h) of the same compound?
Its value is 55%.

What about the “levels of MMP-1 secreted into the culture medium” value ([2]; PS 1.5×IC50, 2 h) of the same compound?
The value was 21.6±0.8.

What about the MMP-1 suppression ([2]; cultured human conjunctiva cells) of the same compound?
Its MMP-1 suppression is 75%-86%.

Source: patent publication US11510931B2, “Compositions and methods for treating ophthalmic conditions” (MEDICON PHARMACEUTICALS, INC., priority 2016, dated 2022)
